The values that follow come from BindingDB's records for doi:10.1016/j.bmcl.2004.08.038 (Glaxosmithkline, 2004).

Each structure is given as a SMILES string.

The assay deals with T1, Dimer of Gag-Pol polyprotein [501-599,Q508K,L534I,L564I,C568A,C596A] (Human immunodeficiency virus 1, UniProt P03367, C568A/C596A/L534I/L564I/Q508K).
T1 construct: 501-599
In words: Protease Inhibition Assay. Conditions: pH 6.4; 25 °C. The method, then:
The Ki values were determined using fluorogenic substrate, 2-(aminobenzoyl)-Thr-Ile-Nle-Phe(p-NO2)-Gln-ArgNH2. A standard curve relating changes in fluorescent intensity to changes in concentration of product was used to convert fluorescent changes into molar velocities. The amount of cleavage was determined by HPLC.
As usually defined, the Ki is the equilibrium dissociation constant of an inhibitor or competing ligand from its target. A low value points to a stronger hold on the target. `O=C(N[C@H]1c2ccccc2C[C@H]1O)[C@H](Cc1ccccc1)C[C@H](O)CN1C(=O)N(Cc2ccncc2)C[C@@H]1Cc1ccccc1` [(2R,4S)-2-benzyl-5-[(5S)-5-benzyl-2-oxo-3-(pyridin-4-ylmethyl)imidazolidin-1-yl]-4-hydroxy-N-[(1S,2R)-2-hydroxy-2,3-dihydro-1H-inden-1-yl]pentanamide] came in with an inhibition constant Ki of 0.19 µM.

`COc1cc(CN2C[C@H](Cc3ccccc3)N(C[C@@H](O)C[C@@H](Cc3ccccc3)C(=O)N[C@H]3c4ccccc4C[C@H]3O)C2=O)cc(OC)c1OC` [(2R,4S)-2-benzyl-5-[(5S)-5-benzyl-2-oxo-3-[(3,4,5-trimethoxyphenyl)methyl]imidazolidin-1-yl]-4-hydroxy-N-[(1S,2R)-2-hydroxy-2,3-dihydro-1H-inden-1-yl]pentanamide] gave a Ki of 0.1 µM. Compared with the last compound, the Ki is about 1.9-fold lower. Compound `COc1ccc(CN2C[C@H](Cc3ccccc3)N(C[C@@H](O)C[C@@H](Cc3ccccc3)C(=O)N[C@H]3c4ccccc4C[C@H]3O)C2=O)cc1` [(2R,4S)-2-benzyl-5-[(5S)-5-benzyl-3-[(4-methoxyphenyl)methyl]-2-oxoimidazolidin-1-yl]-4-hydroxy-N-[(1S,2R)-2-hydroxy-2,3-dihydro-1H-inden-1-yl]pentanamide] gave an inhibition constant Ki of 0.0056 µM. Against the preceding compound, the Ki is about 18-fold lower.

Regarding `CS(=O)(=O)c1ccc(CN2C[C@H](Cc3ccccc3)N(C[C@@H](O)C[C@@H](Cc3ccccc3)C(=O)N[C@H]3c4ccccc4C[C@H]3O)C2=O)cc1` [(2R,4S)-2-benzyl-5-[(5S)-5-benzyl-3-[(4-methanesulfonylphenyl)methyl]-2-oxoimidazolidin-1-yl]-4-hydroxy-N-[(1S,2R)-2-hydroxy-2,3-dihydro-1H-inden-1-yl]pentanamide], the Ki was found to be 0.3 µM. Compared with the last compound, the Ki is about 54-fold higher. Compound `O=C(N[C@H]1c2ccccc2C[C@H]1O)[C@H](Cc1ccccc1)C[C@H](O)CN1C(=O)N(Cc2cccnc2)C[C@@H]1Cc1ccccc1` [(2R,4S)-2-benzyl-5-[(5S)-5-benzyl-2-oxo-3-(pyridin-3-ylmethyl)imidazolidin-1-yl]-4-hydroxy-N-[(1S,2R)-2-hydroxy-2,3-dihydro-1H-inden-1-yl]pentanamide] returned a Ki of 0.018 µM. `O=C(N[C@H]1c2ccccc2C[C@H]1O)[C@H](Cc1ccccc1)C[C@H](O)CN1C(=O)N(Cc2ccccn2)C[C@@H]1Cc1ccccc1` [(2R,4S)-2-benzyl-5-[(5S)-5-benzyl-2-oxo-3-(pyridin-2-ylmethyl)imidazolidin-1-yl]-4-hydroxy-N-[(1S,2R)-2-hydroxy-2,3-dihydro-1H-inden-1-yl]pentanamide] came in with a Ki of 0.041 µM. Take `O=C(N[C@H]1c2ccccc2C[C@H]1O)[C@H](Cc1ccccc1)C[C@H](O)CN1C(=O)N(Cc2cccc(F)c2)C[C@@H]1Cc1ccccc1` [(2R,4S)-2-benzyl-5-[(5S)-5-benzyl-3-[(3-fluorophenyl)methyl]-2-oxoimidazolidin-1-yl]-4-hydroxy-N-[(1S,2R)-2-hydroxy-2,3-dihydro-1H-inden-1-yl]pentanamide]: the Ki amounted to 0.0032 µM.
